Measurements from patent US6077841A, “5-heterocyclyl pyrazolo[4,3-d]pyrimidin-7-ones for the treatment of male erectile dysfunction” (Janssen Pharmaceutica, N.V., priority 1999, dated 2000).

System: erectile dysfunction
Assay: not given
Conditions: direct intracavernosal or intraurethral injection; cited from earlier work

Compound	side effects
COc1ccc(Cc2nccc3cc(OC)c(OC)cc23)cc1OC [papaverine]	priapism, fibrosis, penile pain and hematoma at the injection site

Same assay, conditions: in vivo; cited from earlier work

Compound	side effects
CCCCC[C@H](O)/C=C/[C@H]1[C@H](O)CC(=O)[C@@H]1CCCCCCC(=O)O [alprostadil]	priapism, fibrosis, penile pain and hematoma at the injection site
Cc1ccc(N(CC2=NCCN2)c2cccc(O)c2)cc1 [phentolamine]	priapism, fibrosis, penile pain and hematoma at the injection site

Target: PDE V (Oryctolagus cuniculus, UniProt G1SX67)
Assay: Measurement of Inhibition of PDE V (cyclic nucleotide phosphodiesterase assay)
Type: biochemical, rabbit
Conditions: 1 μM cGMP or cAMP, pH 7.4, 30° C., 30 minutes, 10% DMSO; read-out: Activity IC50 (PDEV inhibitory activity)

IC50 [nM]	Compound
470	CCCc1nn(C)c2c(=O)[nH]c(-c3sccc3OCC)nc12 [Compound 4, 5-(3-Ethoxythiophene-2-yl)-1-methyl-3-n-propyl-6,7-dihydro-1H-pyrazolo-[4,3-d]pyrimidin-7-one]
8000	CCCc1nn(C)c2c(=O)[nH]c(-c3sc(S(=O)(=O)N4CCN(C)CC4)cc3OCC)nc12 [Compound 5, 5-[3-Ethoxy-5-(4-methylpiperazinylsulfonyl)-thiophene-2-yl]-1-methyl-3-n-propyl-6,7-dihydro-1H-pyrazolo-[4,3-d]pyrimidin-7-one]
10000	CCCc1nn(C)c2c(=O)[nH]c(-c3sc(S(=O)(=O)N4CCN(C)CC4)cc3O)nc12 [Compound 6, 5-[3-hydroxy-5-(4-methylpiperazinylsulfonyl)-thiophene-2-yl]-1-methyl-3-n-propyl-6,7-dihydro-1H-pyrazolo-[4,3-d]pyrimidin-7-one]
910	CCCc1nn(C)c2c(=O)[nH]c(-c3cc4cccc(OCC)c4o3)nc12 [Compound 7, 5-(7-Ethoxybenzofuran-2-yl)-1-methyl-3-n-propyl-6,7-dihydro-1H-pyrazolo-[4,3-d]pyrimidin-7-one]
5400	CCCc1nn(C)c2c(=O)[nH]c(-c3cc4c(S(=O)(=O)N5CCN(C)CC5)ccc(OCC)c4o3)nc12 [Compound 8]
3500	CCCc1nn(C)c2c(=O)[nH]c(-c3cccn3C)nc12 [Compound 10]
1200	CCCc1nn(C)c2c(=O)[nH]c(-c3sc(S(=O)(=O)N4CCN(c5ncccn5)CC4)cc3OCC)nc12 [Compound 12]
950	CCCc1nn(C)c2c(=O)[nH]c(-c3sc(S(=O)(=O)N4CCN(C(N)=O)CC4)cc3OCC)nc12 [Compound 20]
1400	CCCc1nn(C)c2c(=O)[nH]c(-c3sc(S(=O)(=O)N(C)C)cc3OCC)nc12 [Compound 22]
2300	CCCc1nn(C)c2c(=O)[nH]c(-c3sc(S(=O)(=O)N4CCN(CC)CC4)cc3OCC)nc12 [Compound 24]
4900	CCCc1nn(C)c2c(=O)[nH]c(-c3sc(S(=O)(=O)N(C)CCN(C)C)cc3OCC)nc12 [Compound 26]
1600	CCCc1nn(C)c2c(=O)[nH]c(-c3cccs3)nc12 [Compound 28]
8300	CCCc1nn(C)c2c(=O)[nH]c(-c3sc(S(=O)(=O)N4CCC(N(C)C)CC4)cc3OCC)nc12 [Compound 29]

Same assay, conditions: at 10 μM; read-out: Activity Inhibition % at (conc. μM)

inhibition at 10 µM [%]	Compound
31	CCCc1nn(C)c2c(=O)[nH]c(-c3cc(S(=O)(=O)N4CCN(C)CC4)cn3C)nc12 [Compound 11]
19	CCCc1nn(C)c2c(=O)[nH]c(-c3sc(S(=O)(=O)N4CCN(c5ccccc5)CC4)cc3OCC)nc12 [Compound 16]
28	CCCc1nn(C)c2c(=O)[nH]c(-c3sc(S(=O)(=O)N4CCN(c5ccccc5)CC4)cc3O)nc12 [Compound 17]
44	CCCc1nn(C)c2c(=O)[nH]c(-c3sc(S(=O)(=O)N4CCN(C/C=C/c5ccccc5)CC4)cc3OCC)nc12 [Compound 18]
27	CCCc1nn(C)c2c(=O)[nH]c(-c3sc(S(=O)(=O)N4CCN(C/C=C/c5ccccc5)CC4)cc3O)nc12 [Compound 19]
30	CCCc1nn(C)c2c(=O)[nH]c(-c3sc(S(=O)(=O)N4CCN(C(N)=O)CC4)cc3O)nc12 [Compound 21]
30	CCCc1nn(C)c2c(=O)[nH]c(-c3sc(S(=O)(=O)N(C)C)cc3O)nc12 [Compound 23]
26	CCCc1nn(C)c2c(=O)[nH]c(-c3sc(S(=O)(=O)N4CCN(CC)CC4)cc3O)nc12 [Compound 25]
32	CCCc1nn(C)c2c(=O)[nH]c(-c3sc(S(=O)(=O)N(C)CCN(C)C)cc3O)nc12 [Compound 27]
33	CCCc1nn(C)c2c(=O)[nH]c(-c3sc(S(=O)(=O)N4CCN(C5CCCCC5)CC4)cc3OCC)nc12 [Compound 30]
31	CCCc1nn(C)c2c(=O)[nH]c(-c3sc(S(=O)(=O)N4CCN(C5CCCCC5)CC4)cc3O)nc12 [Compound 31]
31	CCCc1nn(C)c2c(=O)[nH]c(-c3cc(S(=O)(=O)N4CCN(c5ncccn5)CC4)cn3C)nc12 [Compound 32]

Same assay, conditions: at 20 μM; read-out: Activity Inhibition % at (conc. μM)

inhibition at 20 µM [%]	Compound
6	CCCc1nn(C)c2c(=O)[nH]c(-c3cc4c(S(=O)(=O)N5CCN(C)CC5)cc(S(=O)(=O)N5CCN(C)CC5)c(OCC)c4o3)nc12 [Compound 9]
46	CCCc1nn(C)c2c(=O)[nH]c(-c3sc(S(=O)(=O)N4CCN(Cc5ccccc5)CC4)cc3OCC)nc12 [Compound 13]
18	CCCc1nn(C)c2c(=O)[nH]c(-c3sc(S(=O)(=O)N4CCN(Cc5ccccc5)CC4)cc3O)nc12 [Compound 14]
13	CCCc1nn(C)c2c(=O)[nH]c(-c3sc(S(=O)(=O)N4CCN(c5ncccn5)CC4)cc3O)nc12 [Compound 15]

System: erectile dysfunction
Assay: not given
Conditions: ED of psychogenic or organic etiology; share of men; cited from earlier work

Compound	improved sexual function in men who suffer from ED
CCCc1nn(C)c2c(=O)[nH]c(-c3cc(S(=O)(=O)N4CCN(C)CC4)ccc3OCC)nc12 [sildenafil, 5-[2-ethoxy-5-(4-methylpiperazin-1-ylsulphonyl)phenyl]-1-methyl-3-n-propyl-6,7-dihydro-1H-pyrazolo[4,3-d]pyrimidin-7-one]	about 70%

Same assay, conditions: patients who had undergone a radical prostatectomy; versus 15% on placebo; cited from earlier work

Compound	patients with improved erections [%]
CCCc1nn(C)c2c(=O)[nH]c(-c3cc(S(=O)(=O)N4CCN(C)CC4)ccc3OCC)nc12 [sildenafil, 5-[2-ethoxy-5-(4-methylpiperazin-1-ylsulphonyl)phenyl]-1-methyl-3-n-propyl-6,7-dihydro-1H-pyrazolo[4,3-d]pyrimidin-7-one]	43

Same assay, conditions: use of sildenafil; cited from earlier work

Compound	undesirable side effects
CCCc1nn(C)c2c(=O)[nH]c(-c3cc(S(=O)(=O)N4CCN(C)CC4)ccc3OCC)nc12 [sildenafil, 5-[2-ethoxy-5-(4-methylpiperazin-1-ylsulphonyl)phenyl]-1-methyl-3-n-propyl-6,7-dihydro-1H-pyrazolo[4,3-d]pyrimidin-7-one]	headache, flushing and disrupted color vision
